Measurements reported in US20030093842A1, “Resistance marker for monocotyledons” (Biogemma UK Limited, priority 1997, published 2003).

Test system: immature embryos of NB1
Experiment: Asulam kill curve: production of embryogenic callus by immature embryos on Asulam-supplemented W3 medium
Assay type: cell-based, wheat
Conditions: scored after 6 weeks
Procedure: The tissue culture protocol was essentially as the method of Weeks et al (Plant Physiol., 102:1077-1084 (1993)). Donor plants of the South American spring wheat line designated NB1, obtained from Nickerson Seeds Limited, were grown in a glasshouse under controlled conditions. Immature ears were harvested at 14-20 days post anthesis, and the immature caryopses were removed from the ear and dehusked using forceps. Caryopses were surface-sterilised with 70% ethanol for 2 minutes and 20% Domestos™ (Lever, UK) for 20-30 minutes and then washed with sterile distilled water. Immature embryos were isolated aseptically under a stereo dissecting microscope and placed scutella uppermost on W3 medium (MS supplemented with 20 g/l sucrose and 2 mg/l 2,4-D and solidified with 6 g/l Type I agarose [Sigma, Poole, UK]). Cultures were maintained at 25° C. with a 16 h photoperiod for 5 days prior to bombardment. Immature embryos were isolated as described for example 1, plated onto W3 medium and maintained in the dark. After 5-7 days embryos were transferred to W3 medium supplemented with Asulam (Rhone-Poulenc Agrochemicals, Ongar, UK) at a range of concentrations between 0 and 5 mg/l and maintained at 25° C. with a 16 h photo period. Embryos and embryo-derived embryogenic calli were transferred to fresh selective medium every 2 weeks. The calli were scored for embryogenic response after 6 weeks.

## COC(=O)NS(=O)(=O)c1ccc(N)cc1 [Asulam]
Asulam 0.1 mg/l in W3 medium, (no. embryos with embryogenic callus/total no. embryos plated) × 100
  Embryogenic response (%): 100%
Asulam 0.25 mg/l in W3 medium
  Embryogenic response (%): 64%
Asulam 0.5 mg/l in W3 medium
  Embryogenic response (%): 28%
Asulam 1 mg/l in W3 medium
  Embryogenic response (%): 0%
Asulam 2 mg/l in W3 medium
  Embryogenic response (%): 0%
Asulam 3 mg/l in W3 medium
  Embryogenic response (%): 0%
Asulam 4 mg/l in W3 medium
  Embryogenic response (%): 0%
Asulam 5 mg/l in W3 medium
  Embryogenic response (%): 0%
